Where “and” joins values, the source holds several entries; their conditions need not be identical. Identical values can stand only once.
Columns and labels:
normal skin tissue = conditions: systemically administered, clinical use; cited from earlier work
[1] = test system: colon carcinoma tumor mass; assay: Photodynamic therapy of a solid tumor in a patient with implanted LED light source probes; assay type: in vivo, human
Description: A patient in the terminal phase of recurrent malignant colon cancer having undergone chemotherapy and irradiation therapy, presented with a protruding colon carcinoma tumor mass of approximately 500 grams and approximately 13 cm in diameter, which extended through the patient's dermis. Due to the advanced state of the patient's disease and due to the highly vascularized nature of this tumor mass, resection was not feasible. Further, this large tumor mass presented a significant amount of pain and discomfort to the patient, as well as greatly impairing the patient's ability to lie flat.
Six separate light source probes, each including a linear array of LEDs, were surgically implanted in this large human tumor using standard surgical procedures. A single dose of a photosensitizer agent (aminolevulinic acid (ALA) at 60 mg/kg) was provided by oral administration to the patient. Following a period of five hours to permit sufficient clearance of the photosensitizing agent from healthy tissues, light irradiation was administered. An intensity of about 25-30 mW of light from each light source probe (650 nm peak wavelength) was delivered to the tumor for 40 hours. […] The total fluence delivered to the tumor bed during this single extended duration treatment was in excess of 20,000 Joules.
The fluence rate employed in this Example represented about 150-180 mW/cm^2, with a total fluence more than 20,000 Joules.

epithelial cancer cells = assay: Low fluence PDT of nude mice injected with epithelial cancer cells preincubated with photosensitizer; assay type: in vivo; conditions: for tumor growth: 660 nm light about 48 hours, 30 microwatts per cm^2, after 1.5 months
Procedure: (§1) A series of experiments were performed using nude mice growing transplanted human tumors. The mice are injected with various photosensitizers and the tumors illuminated with low fluence of only […] of light over a 72 hour time period. Extended tumor necrosis was observed.
(§2) Another two mice with established tumors were injected with 50-100 micrograms of Pheophorbide A into the lesion and exposed to 660 nm light (30 microwatts per cm^2) for 72 hours.
(§3) Two experimental mice were injected with epithelial cancer cells preincubated with 20 micrograms of Chlorin e6. […] Another two mice were injected with 100-150 micrograms of Chlorin e6 intratumorally and then exposed to 660 nm light (30 microwatts per cm^2) for 72 hours.

[2] = test system: transplanted human tumors; assay: Low fluence PDT of established transplanted human tumors in nude mice; assay type: in vivo; conditions: for tumor necrosis: 660 nm light 30 microwatts per cm^2 for 72 hours, after 7 days
Procedure: as §1, §2, §3
Five experimental mice bearing established tumors were injected with 1 mg Hpd intraperitoneally followed by exposure to 630 nm (peak) light ([…]) for 72 hours. […] There was no effect observed on control animals maintained in the absence of light (dark control mice).

[3] = cited from earlier work
virus-infected T cells = conditions: Blood Cells 18:129-40 (1992); cited from earlier work

CCOC(=O)C1=Cc2c3nc(cc4nc(cc5[n-]c(cc6[n-]c2c(C)c6CC)c(C)c5CC)C(C)=C4CC)[C@@H](C)[C@]13CC.[Cl-].[Cl-].[Sn] (racemic) [PURLYTIN]
duration of dermal photosensitivity (normal skin tissue): at least several weeks

NCC(=O)CCC(=O)O [ALA, aminolevulinic acid]
reduction of tumor tissue (necrotic tissue debrided) ([1]; over four weeks following PDT): approximately 500 grams
radius of extensive tumor necrosis from each of the light source probes ([1]; patient, ALA 60 mg/kg oral, 650 nm light, after 40 hours of PDT, total fluence > 20,000 Joules): greater than 5 cm
collateral damage to surrounding normal tissue ([1]; patient, ALA 60 mg/kg oral, after 40 hours of PDT): no collateral damage

C=Cc1c(C)c2cc3nc(c(CC(=O)O)c4[nH]c(cc5nc(cc1[nH]2)C(C)=C5CC)c(C)c4C(=O)O)[C@@H](CCC(=O)O)[C@@H]3C [Chlorin e6]
tumor growth (epithelial cancer cells; cells preincubated with 20 micrograms): no tumor growth
tumor growth, dark control (epithelial cancer cells; cells preincubated with 20 micrograms, no light): developed a large tumor
tumor necrosis ([2]; 100-150 micrograms intratumorally): Extensive tumor necrosis

Oc1cccc(-c2c3nc(c(-c4cccc(O)c4)c4ccc([nH]4)c(-c4cccc(O)c4)c4nc(c(-c5cccc(O)c5)c5ccc2[nH]5)CC4)C=C3)c1 [FOSCAN]
duration of dermal photosensitivity (normal skin tissue): at least several weeks

CC(=O)[O-].CC(=O)[O-].CCc1c(CC)c2cc3nc(cnc4cc(OCCOCCOCCOC)c(OCCOCCOCCOC)cc4ncc4nc(cc1[n-]2)C(CCCO)=C4C)C(C)=C3CCCO.O.[Lu+3] [Lutrin, lutetium texaphyrin]
time tumor tissues retain the agent ([3]; from time of administration): 48 to 96 h and 24 to 96 h
time at which a larger proportion clears from normal tissue ([3]; in vivo): about 8 hours
time at which a proportion begins to clear from normal tissue ([3]; in vivo): about 3 hours
time at which an even greater proportion clears from normal tissue ([3]; in vivo): about 16 hours

Pheophorbide A
tumor growth (epithelial cancer cells; cells preincubated with 10 micrograms): no tumor growth
tumor growth, dark controls (epithelial cancer cells; cells preincubated with 10 micrograms, maintained in the absence of light): developed a large tumor
tumor necrosis ([2]; 50-100 micrograms into the lesion): Extensive tumor necrosis
effect on tumor, dark control animals ([2]; 50-100 micrograms into the lesion, no light): no effect

benzoporphyrin derivatives [BPD]
effect on T cell membrane after exposure to light (virus-infected T cells): holes developed in the T cell membrane and increased in size until the membrane completely decomposed

sodium porfimer [PHOTOPHRIN]
duration of dermal photosensitivity (normal skin tissue): up to six weeks

— US6899723B2, “Transcutaneous photodynamic treatment of targeted cells” (Light Sciences Corporation, priority 2001, dated 2005)
